Reference: publication PMC3495945, “Org 214007-0: A Novel Non-Steroidal Selective Glucocorticoid Receptor Modulator with Full Anti-Inflammatory Properties and Improved Therapeutic Index” (PLoS ONE, 2012)

Columns and labels:
HepG2 cells = experiment: Gene expression profiling (microarray) in HepG2 cells; format: cell-based, human; details: HepG2, 1 μM compound, 6 hours; prednisolone set at 100%
Method: HepG2-8/97-WS.5 cells, deprived from serum for 18 hours, were stimulated with glucocorticoid and 0.5 mM cAMP for 6 hours. RNA was isolated and used for double stranded cDNA synthesis using the One-Cycle Target Labeling Kit (Affymetrix Santa Clara, CA). This cDNA was used as a template for the preparation of biotin-labeled cRNA using the GeneChip IVT Labeling Kit (Affymetrix Santa Clara, CA). Biotin-labeled cRNA was fragmented and hybridized at 45°C for 16–17 hours to the Human Genome U133A 2.0 Array or the Human Genome U133 Plus 2.0 Array (Affymetrix, Santa Clara, CA). (for more detailed information see Supportive Information) (SI text). Arrays were stained with phycoerythrin-streptavidin conjugate (Molecular Probes, Eugene, OR), and the signals were amplified by staining the array with biotin-labeled anti-streptavidin antibody (Vector Laboratories, Burlingame, CA) followed by phycoerythrin-streptavidin. […] Data was saved as raw image file and quantified using GCOS (Affymetrix). […]
HepG2-8/97-WS.5 cells were seeded at 2.10^5 cells/mL in a 24-well plate in DMEM/F12 medium (Gibco), supplemented with 80 U/mL penicillin, 80 μg/mL streptomycin and 5% Fetal Bovine Serum (Invitrogen). […] RNA quantity and quality were determined using the Agilent […] bioanalyzer. […] Data was saved as raw image file and quantified using GCOS (Affymetrix).

[1] = tested on: murine collagen-induced arthritis (CIA) model; details: for disease score (arthritis score): oral, once daily 3 weeks, therapeutic
Method: At day 0 mice were immunized at the base of the tail with 100 μg bovine type II collagen (UMC Nijmegen, The Netherlands) in Complete Freund's Adjuvant (CFA, Difco) enriched with 2 mg/ml Mycobacterium tuberculosis H37RA (Difco). At day 21 mice were boosted by an i.p. injection of 100 μg bovine type II collagen dissolved in saline. After disease onset, mice with an arthritis score ranging from 0.25 to 1.25 were divided into matched groups (n = 12). […] The clinical severity of arthritis (arthritis score) was graded and scored as described [51]. To assess the effects of treatments, the area under the curve (AUC) of arthritis score (subtracting baseline AUC of arthritis score on day 0) was used. One day after the final treatment animals were sacrificed and the knee and ankle joints were imaged using a Faxitron X-ray, Modl MX-20 digital imaging system and analysed using Specimen (Version 2.0.1). The bone destruction was scored on a scale of 0–5 as described previously [51]. The cumulative scores of 2 joints (right ankle and knee) were used as radiological scores. From H&H-stained sections, articular cartilage destruction and inflammatory infiltrate in the right knee joint were scored on a scale of 0–3. The whole study was carried out in a blinded fashion. Statistical analysis was performed using one-way ANOVA.

GR = molecular target: T1, GR (Homo sapiens, UniProt P04150); experiment: ChIP-Seq analysis of GR binding to DNA in THP-1 cells; format: cell-based; set-up: endogenous in cells; host or cells: THP-1; details: for number of ChIP-Seq clusters compared to vehicle: THP-1, 1 μM, 1 hour
T1 sequence (P04150 1-777): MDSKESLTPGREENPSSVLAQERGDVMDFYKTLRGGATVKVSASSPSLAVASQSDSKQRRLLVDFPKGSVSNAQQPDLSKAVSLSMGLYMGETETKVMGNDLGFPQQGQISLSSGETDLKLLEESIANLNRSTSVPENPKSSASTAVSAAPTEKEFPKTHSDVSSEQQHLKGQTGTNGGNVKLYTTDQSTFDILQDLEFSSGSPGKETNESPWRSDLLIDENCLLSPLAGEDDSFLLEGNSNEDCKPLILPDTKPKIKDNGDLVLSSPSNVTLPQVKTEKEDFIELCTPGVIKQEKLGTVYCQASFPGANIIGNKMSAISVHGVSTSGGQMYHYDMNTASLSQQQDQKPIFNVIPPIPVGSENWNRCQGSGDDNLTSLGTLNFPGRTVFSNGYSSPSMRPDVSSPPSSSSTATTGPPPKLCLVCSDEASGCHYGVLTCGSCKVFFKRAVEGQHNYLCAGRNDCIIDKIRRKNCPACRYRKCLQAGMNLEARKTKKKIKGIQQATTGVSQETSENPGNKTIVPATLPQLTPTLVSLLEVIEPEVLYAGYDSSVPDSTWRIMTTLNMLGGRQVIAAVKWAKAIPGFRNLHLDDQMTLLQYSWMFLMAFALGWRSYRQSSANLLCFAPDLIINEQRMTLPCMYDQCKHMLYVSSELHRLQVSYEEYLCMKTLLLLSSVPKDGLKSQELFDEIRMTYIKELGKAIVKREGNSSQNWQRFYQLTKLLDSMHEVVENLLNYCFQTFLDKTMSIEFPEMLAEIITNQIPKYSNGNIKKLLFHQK
Method: From the THP-1 samples that were used for gene expression analysis after 6 hours, samples were drawn after 1 hour and used for ChIP–Seq analysis at Genpathway (Carlsbad, CA). For precipitation of genomic DNA regions antibody against GR (Santa Cruz sc-8992) was used. Details are provided in SI text. The obtained amplified DNA libraries were sent to Illumina Sequencing Services (San Diego, CA) for sequencing on a Genome Analyzer II. Sequence files were analyzed with the Genomatix Genome Analyzer Workbench from Genomatix (Genomatix Software GmbH, Munich). Sequences were clustered using default parameter settings and aligned against the human genome version GRCh37/hg19. Clusters were merged using the Replicate Analysis module from the Workbench package (more detailed information in SI text).
Cells were fixed with 1% formaldehyde for 15 min and quenched with 0.125 M glycine. Chromatin was isolated by adding lysis buffer, followed by disruption with a Dounce homogenizer (cells) or motor pestle (tissue). Lysates were sonicated and the DNA sheared to an average length of 300-500 bp. Genomic DNA (Input) was prepared by treating aliquots of chromatin with RNase, proteinase K and heat for de-crosslinking, followed by ethanol precipitation. Pellets were resuspended and the resulting DNA was quantified on a NanoDrop spectrophotometer. Extrapolation to the original chromatin volume allowed quantitation of the total chromatin yield.
An aliquot of chromatin (28.5 ug) was precleared with protein A agarose beads (Invitrogen). Genomic DNA regions of interest were isolated using 4 ug antibody against GR (Santa Cruz sc-8992). Complexes were washed, eluted from the beads with SDS buffer, and subjected to RNase and proteinase K treatment. Crosslinks were reversed by incubation overnight at 65 C, and ChIP DNA was purified by phenol-chloroform extraction and ethanol precipitation.

binding sites also contained within the prednisolone set (GR; non-stimulated, 2080 vs 9413 sites) [%] | SMILES | Max eff., induction of gene expression, micro-array (HepG2 cells) [%] | disease score (arthritis score) [1] | number of ChIP-Seq clusters compared to vehicle (GR; inflammatory condition) | number of ChIP-Seq clusters compared to vehicle (GR; non-stimulated condition) | disease symptoms ([1]; 1.5 mg/kg/day oral) | bone damage by X-ray on knees and paws ([1]; 0.5 and 1.5 mg/kg/day, end of study) | potency relative to prednisolone ([1]; CIA, oral once daily) | histopathology of knee joints: inflammatory infiltrates, cartilage destruction, bone apposition ([1]; two highest doses (0.5 and 1.5 mg/kg/day))
 | C[C@]12C=CC(=O)C=C1CC[C@@H]1[C@@H]2[C@@H](O)C[C@@]2(C)[C@H]1CC[C@]2(O)C(=O)CO [prednisolone, reference compound] | 100 | dose-dependent reduction | 3471 | 9413 |  |  |  | 
99.5 | Cc1nnsc1C(=O)N[C@H]1CCN2c3ccc(C#N)cc3[C@@H](C)c3ccccc3[C@@H]2C1 [Org 214007-0] | 67 | dose-dependent reduction | 2502 | 2080 | total suppression | significant reduction | about 3 fold | significant reduction
